In patent US20180015180A1, “SHORT AND D-AMINO ACID-CONTAINING POLYPEPTIDES FOR THERAPEUTIC CONJUGATES AND USES THEREOF” (AngioChem Inc., priority 2010, published 2018):
Ends that are not written are not given here.

Legend:
BBB = experiment: In situ brain perfusion in mice with capillary depletion (transport across the BBB); assay type: in vivo; conditions: for crossing of the BBB (overall conclusion): mouse, in vivo
Protocol: The initial transport was measured as a function of time.

pepsin = experiment: Stability of oral formulations of Angiopep peptides in the presence of pepsin; assay type: in vitro ADME; conditions: pepsin (isolated enzyme); 1 mg/mL peptide; 1 mg/25 mL pepsin (diluted 41 times, pH=1.4); 37° C.
pepsin, sequence (P0DJD8 63-388): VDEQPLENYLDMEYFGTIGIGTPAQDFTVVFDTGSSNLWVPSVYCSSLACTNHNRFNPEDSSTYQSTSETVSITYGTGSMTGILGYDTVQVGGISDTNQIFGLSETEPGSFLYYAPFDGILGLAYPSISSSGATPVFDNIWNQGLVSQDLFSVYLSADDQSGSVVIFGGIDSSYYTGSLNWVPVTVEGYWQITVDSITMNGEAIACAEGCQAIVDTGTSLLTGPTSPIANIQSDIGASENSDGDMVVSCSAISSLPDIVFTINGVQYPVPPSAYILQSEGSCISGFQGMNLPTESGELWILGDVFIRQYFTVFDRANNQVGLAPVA
Protocol: The stability of oral formulations (1 mg/mL of Angiopep peptide) was determined in the presence of 1 mg/25 mL of pepsin (diluted 41 times, pH=1.4), an enzyme present in gastric fluid, at 37° C. Table 5 provides the half-life (t1/2) for degradation of various Angiopep peptides.

mice = experiment: Induction of hypothermia (body temperature) after intravenous bolus; assay type: in vivo; conditions: Table 9 grades

Compound | half-life at 1 mg/mL (pepsin) [min] | also measured
CC[C@H](C)[C@H](NC(=O)[C@@H](Cc1ccc(O)cc1)NC(=O)[C@@H]1CCCN1C(=O)[C@H](CCCNC(=N)N)NC(=O)[C@H](CCCNC(=N)N)NC(=O)[C@H](CCCCNC(=O)CCCCCN1C(=O)CC(SC[C@H](NC(=O)[C@H](Cc2ccc(O)cc2)NC(=O)[C@H](CCC(=O)O)NC(=O)[C@H](CCC(=O)O)NC(=O)[C@@H](NC(=O)[C@H](CCCCN)NC(=O)[C@@H](Cc2ccccc2)NC(=O)[C@H](CC(N)=O)NC(=O)[C@H](CC(N)=O)NC(=O)[C@@H](CCCNC(=N)N)NC(=O)[C@H](N)CCCCN)[C@@H](C)O)C(N)=O)C1=O)NC(C)=O)C(=O)N[C@@H](CC(C)C)C(=O)O (stereo partly shown) [Peptide P5a-NT1] |  | brain uptake (BBB; in situ brain perfusion in mice, initial transport measured as a function of time): higher than for neurotensin (NT)
N=C(N)NCCC[C@H](NC(=O)[C@@H](N)CCCCN)C(=O)N[C@@H](CC(N)=O)C(=O)N[C@@H](CC(N)=O)C(=O)N[C@@H](Cc1ccccc1)C(=O)N[C@@H](CCCCN)C(=O)N[C@@H](Cc1ccc(O)cc1)C(=O)N[C@@H](CS)C(N)=O [Peptide P6] | > 240 | 
C[C@@H](O)[C@H](N)C(=O)N[C@@H](Cc1ccccc1)C(=O)N[C@@H](Cc1ccccc1)C(=O)N[C@@H](Cc1ccc(O)cc1)C(=O)NCC(=O)NCC(=O)N[C@@H](CO)C(=O)N[C@H](CCCNC(=N)N)C(=O)NCC(=O)N[C@H](CCCCN)C(=O)N[C@H](CCCNC(=N)N)C(=O)N[C@@H](CC(N)=O)C(=O)N[C@@H](CC(N)=O)C(=O)N[C@@H](Cc1ccccc1)C(=O)N[C@@H](CCCCN)C(=O)N[C@H](C(=O)N[C@@H](CCC(=O)O)C(=O)N[C@@H](CCC(=O)O)C(=O)N[C@@H](Cc1ccc(O)cc1)C(=O)O)[C@@H](C)O [Peptide 3D-An2] | 60 | 
N=C(N)NCCC[C@@H](NC(=O)[C@H](N)CCCCN)C(=O)N[C@@H](CC(N)=O)C(=O)N[C@@H](CC(N)=O)C(=O)N[C@H](Cc1ccccc1)C(=O)N[C@@H](CCCCN)C(=O)N[C@@H](Cc1ccc(O)cc1)C(=O)N[C@@H](CS)C(N)=O [Peptide P6a, D-Lys-D-Arg-Asn-Asn-D-Phe-Lys-Tyr-Cys] | > 1080 | 
C[C@@H](O)[C@H](NC(=O)[C@H](CCCCN)NC(=O)[C@@H](Cc1ccccc1)NC(=O)[C@H](CC(N)=O)NC(=O)[C@H](CC(N)=O)NC(=O)[C@@H](CCCNC(=N)N)NC(=O)[C@H](N)CCCCN)C(=O)N[C@@H](CCC(=O)O)C(=O)N[C@@H](CCC(=O)O)C(=O)N[C@@H](Cc1ccc(O)cc1)C(=O)N[C@@H](CS)C(N)=O [Peptide P5a, D-Lys-D-Arg-Asn-Asn-D-Phe-Lys-Thr-Glu-Glu-Tyr-Cys] | 21 | 
FYGGSRGKRNNFKTEEYC-NH2 [Peptide P1] |  | crossing of the BBB (overall conclusion) (BBB): effectively cross the BBB
TFFYGGSRG K R N N F KTEEY E L Y E N K P R R P Y I L (TFFYGGSRGKRNNFKTEEYELYENKPRRPYIL) [An2-NT, fusion protein] |  | Hypothermia (mice): ✓✓✓
C[C@@H](O)[C@H](NC(=O)[C@H](CCCCN)NC(=O)[C@H](Cc1ccccc1)NC(=O)[C@H](CC(N)=O)NC(=O)[C@H](CC(N)=O)NC(=O)[C@H](CCCNC(=N)N)NC(=O)[C@@H](N)CCCCN)C(=O)N[C@@H](CCC(=O)O)C(=O)N[C@@H](CCC(=O)O)C(=O)N[C@@H](Cc1ccc(O)cc1)C(=O)N[C@@H](CS)C(N)=O [Peptide P5] | 24 | crossing of the BBB (overall conclusion) (BBB): effectively cross the BBB
C[C@@H](O)[C@H](N)C(=O)N[C@@H](Cc1ccccc1)C(=O)N[C@@H](Cc1ccccc1)C(=O)N[C@@H](Cc1ccc(O)cc1)C(=O)NCC(=O)NCC(=O)N[C@@H](CO)C(=O)N[C@@H](CCCNC(=N)N)C(=O)NCC(=O)N[C@@H](CCCCN)C(=O)N[C@@H](CCCNC(=N)N)C(=O)N[C@@H](CC(N)=O)C(=O)N[C@@H](CC(N)=O)C(=O)N[C@@H](Cc1ccccc1)C(=O)N[C@@H](CCCCN)C(=O)N[C@H](C(=O)N[C@@H](CCC(=O)O)C(=O)N[C@@H](CCC(=O)O)C(=O)N[C@@H](Cc1ccc(O)cc1)C(=O)O)[C@@H](C)O [An2, T F F Y G G S R G K R N N F K T E E Y, reference compound] | 40 | 
